Assay results: patent US5846934A, “Pure somatostatin antagonist and methods of use thereof” (American Cyanamid Company, priority 1997, dated 1998)
Positions of bridges follow the written chain, without caps; N, C: chain ends. Non-standard residues stand in square brackets, D forms with d. Residues, ends and D or L forms follow the SMILES beside them. Phe(4-NO2) = N[C@@H](Cc1ccc([N+](=O)[O-])cc1)C(=O)O; 2Nal = N[C@@H](Cc1ccc2ccccc2c1)C(=O)O

How the values were obtained:
SSTR2 [1] = molecular target: T1, SSTR2 (Rattus norvegicus, UniProt P30680); assay: Cyclic AMP accumulation, forskalin stimulated, intact cells; format: cell-based; conditions: read-out: SSTR^2 % IA (% intrinsic activity)
Description: Cyclic AMP accumulation assays are used to determine the functional coupling of somatostatin receptors to effectors. All five cloned somatostatin receptors inhibit cyclic AMP accumulation and adenylyl cyclone activity.^1,2,3,4,5 This evaluation measures cyclic AMP accumulation from intact cells using the adrenal binding protein method. Signal transduction by somatostatin is mediated by lowering intracellular c-AMP levels. This functional assay measures the ability of the test compound to inhibit the effect of somatostatin on forskalin stimulated c-AMP levels.
Bovine adrenal gland extracts are prepared according to the method of Brown et al^6 with minor modifications. […]
Somatostatin-mediated inhibition of cyclic AMP accumulation is measured in intact cells co-incubated with the diterpene forskalin (5 μM) which activates adenylyl cyclase directly and stimulates cyclic AMP accumulation in cells. […] The cells are counted and the concentration of cells is adjusted to 50,000/70 μl and incubated 15 minutes at room temperature before starting the assay. […]

[2] = molecular target: T2, rat somatostatin receptor subtype 2 (SSTR2) (Rattus norvegicus, UniProt P30680); assay: Yeast assay, somatostatin antagonist activity (zone of no growth in presence of S-14); format: cell-based; parameters: key: 1 is minimum antagonist activity; 5 is maximum antagonist activity; --: When no activity is observed, the result is indicated by a dash; conditions: rating on a scale of 1-5 from zone of no growth; 5 μL of 1 mg/mL S-14 added to each plate
T2 construct: expressed in transfected cells; host or cells: Saccharomyces cerevisiae LY364 bearing pJH2 (SSTR2) and pLP82 (G protein)
Method: (§1) In this evaluation, yeast cells which have been specifically modified to functionally express rat somatostatin receptor subtype 2 (SSTR2) on their cell surfaces are used. S. Cerevisiae LY364 cells are plated in a standard synthetic agar medium which lacks histidine. In the absence of a somatostatin receptor agonist, the auxotrophic (his3) cells are unable to grow. In the presence of somatostatin, or a somatostatin agonist, the expression of an enzyme (His3p: imidazole-glycerol phosphate dehydratase) which is essential for histidine biosynthesis is induced. The cells become competent to produce histidine, resulting in a zone of growing cells around the applied test compound. The zone is measured and the test compound is given an agonist rating on a scale of 1-5 wherein 1 is minimum agonist activity and 5 is maximum agonist activity.
To evaluate the somatostatin antagonist activity of a test compound, the above procedure is followed except on day 3, 5 μL of 1 mg/mL of somatostatin, S-14, is added to each plate, before applying the test compound. If the test compound is an antagonist of somatostatin, then a zone of no growth will appear within the cell growth zone. This zone of no growth is measured and the test compound is given an antagonist rating on a scale of 1-5 wherein 1 is minimum antagonist activity and 5 is maximum antagonist activity.
The results are shown in Table I. When no activity is observed, the result is indicated by a dash.
On day 3, add 5 μL 1 mg/mL S-14 to each plate.
(§2) Day 7. Growth in response to somatostatin should be readily observable. Rate extent of growth or inhibition of growth according to rating scale described hereinabove.

[3] = molecular target: T2, rat somatostatin receptor subtype 2 (SSTR2); assay: Yeast assay, somatostatin agonist activity (zone of growth of modified yeast cells); format: cell-based; parameters: key: 1 is minimum agonist activity; 5 is maximum agonist activity; --: When no activity is observed, the result is indicated by a dash; conditions: rating on a scale of 1-5 from zone of growth; S. cerevisiae LY364 expressing rat SSTR2
Method: as §1
1) Inoculate 2 mL SCD-ura-trp liquid medium in Falcon 2051 tube with a single colony taken from a plate containing LY364 (MATa ura3-52 leu2 his3 trp1 lys2 ade2 far1:: LYS2 fus1:: FUS1-HIS3 gpa1::hisG sst2::.ADE2 bearing the SSTR2 expression plasmid, pJH2, and the G protein expression plasmid, pLP82) cells.
3) Add 1 mL of LY364 culture to 1 liter of agar medium.
8) Incubate plates at 30° C.
Day 5. Begin checking plates for growth around applied compounds.
as §2

SSTR2 [4] = molecular target: T1, SSTR2; assay: Competitive binding, displacement of [125I]Tyr11 S-14; parameters: expressed in transfected cells; membrane protein
Method: In this evaluation the concentration of test compound required to displace 50% of somatostatin, SRIF, from the SRIF receptor subtypes expressed in mammalian cells is measured, i.e., the concentration required to inhibit 50% of [^125 I] Tyr^11 S-14 (Amersham) (IC50) from binding to the SRIF receptor subtypes.
Radiolabeled SRIF is mixed with pituitary cells, the test compound is added, the mixture is incubated and the radioactivity is measured as compared to control. Reduced radioactivity indicates successful competitive binding of the test compound to the pituitary cell receptor. The concentration of the test compound in nanomolar units required to displace 50% of SRIF from the pituitary cell receptor is calculated and reported in Table II as the IC50 value. Also calculated is the inhibitory constant, Ki.
Tyr^11 S-14 (150,000 cpm at 2000 Ci/mmole, 250 pM final concentration). The binding reaction is initiated by adding 2-60 μg of membrane protein in a 170 μL volume. Final reaction volume is 200 μl/well. All incubations are carried out at room temperature for 2 hours. Free radioligand is separated from bound ligand by rapid filtration through a glass fiber filter (IH-201-HA) using an Inotech cell harvester. The filter is then washed several times with cold (4° C.) binding buffer lacking BSA and protease inhibitors prior to counting in an LKB gamma master counter (78% efficiency). Whatman GFC filters presoaked in 0.3% polyethylenimine (to decrease background) are used.
The IC50 values and Ki values are calculated using the well-known methods described by Y. Cheng and W. H. Prusoff, Biochem. Pharmacol. 22, 3099-3108 (1973), incorporated herein by reference thereto.

T2 sequence (P30680 whole entry): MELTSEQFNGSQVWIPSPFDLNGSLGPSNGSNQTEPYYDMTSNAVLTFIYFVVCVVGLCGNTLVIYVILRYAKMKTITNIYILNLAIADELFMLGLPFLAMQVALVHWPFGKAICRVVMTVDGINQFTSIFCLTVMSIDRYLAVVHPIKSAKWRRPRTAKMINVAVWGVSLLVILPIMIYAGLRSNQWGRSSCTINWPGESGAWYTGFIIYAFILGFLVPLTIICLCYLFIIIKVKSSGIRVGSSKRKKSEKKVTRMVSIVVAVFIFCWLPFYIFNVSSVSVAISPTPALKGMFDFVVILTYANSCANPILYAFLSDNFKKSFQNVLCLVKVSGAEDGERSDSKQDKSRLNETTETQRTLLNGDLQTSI
T1 sequence (P30680 whole entry): as above

SMILES | Emax (SSTR2 [1]) [%] | Yeast Assay Antagonist [2] | Yeast Assay Agonist [3] | Ki (SSTR2 [4]; calculated by method of Cheng and Prusoff, read-out: SSTR2 Binding Affinity Ki) [nM] | IC50 (SSTR2 [4]; displacement of [125I]Tyr11 S-14, 250 pM, room temperature, 2 hours, read-out: SSTR2 Binding Affinity IC50) [nM]
NCCCC[C@@H]1NC(=O)[C@@H](Cc2c[nH]c3ccccc23)NC(=O)[C@H](Cc2ccc(O)cc2)NC(=O)[C@H](NC(=O)[C@@H](N)Cc2ccc([N+](=O)[O-])cc2)CSSC[C@@H](C(=O)N[C@@H](Cc2ccc3ccccc3c2)C(N)=O)NC(=O)[C@H](CO)NC1=O [4-NO2 Phe Tyr Lys Ser Nal(2)] (H-[Phe(4-NO2)][dC]Y[dW]KSC[2Nal]-NH2; disulfide 2-7 (inferred); N-terminus and C-terminus assumed) | 7 | 3 | -- |  | 
C[C@@H](O)[C@@H]1NC(=O)[C@H](CCCCN)NC(=O)[C@@H](Cc2c[nH]c3ccccc23)NC(=O)[C@H](Cc2ccc(O)cc2)NC(=O)[C@H](NC(=O)[C@@H](N)Cc2ccc(I)cc2)CSSC[C@@H](C(=O)N[C@@H](Cc2ccc(O)cc2)C(N)=O)NC1=O [4-IPhe Tyr Lys Thr Tyr] | -12 | 5 | -- |  | 
CC(=O)N[C@@H](Cc1ccc([N+](=O)[O-])cc1)C(=O)N[C@@H]1CSSC[C@@H](C(=O)N[C@H](Cc2ccc(O)cc2)C(N)=O)NC(=O)[C@H]([C@@H](C)O)NC(=O)[C@H](CCCCN)NC(=O)[C@@H](Cc2c[nH]c3ccccc23)NC(=O)[C@H](Cc2ccc(O)cc2)NC1=O [Ac-4-NO2 Phe Tyr Lys Thr D-Tyr] |  | 4 | -- | 0.3 | 0.7
